What was measured:
[1] = system: embryonic neural stem cells (embryonic day 14); assay: Estradiol on embryonic neural stem cell cultures: secondary spheres from one single sphere; format: cell-based
Experimental: (§1) To determine if estradiol, the main form of estrogen, increases the number of neural stem cells, the effect of estradiol on neural stem cell cultures was examined. Primary neural stem cells (from embryonic day 14 or adult subventricular zone) were cultured in EGF for seven days to make neurospheres. These primary neurospheres were then dissociated and re-plated in EGF to make pass 1 neurospheres. Pass 1 neurospheres, either embryonic or adult, were dissociated and plated (50,000 cell/ml) in culture medium containing EGF alone or EGF+4 nM estradiol. The culture was allowed to progress for seven days. To determine the number of neural stem cells in each culture, single spheres (15-20 per experiment) were dissociated and plated in single wells of a 96 well plate in culture medium containing EGF only. After 7 days, the number of spheres which came from one single sphere was counted. The following data represent the results from 15-20 replicates.

[2] = system: adult neural stem cells (adult subventricular zone); assay: Estradiol on adult neural stem cell cultures: secondary spheres from one single sphere; format: cell-based
Experimental: as §1

[3] = system: proliferating cells in the dentate gyrus; settings: literature (Alonso, 2000; Tanapat et al., 1999); cited from earlier work
SVZ proliferating cells = settings: literature (Alonso, 2000; Tanapat et al., 1999); cited from earlier work
[4] = EGF+4 nM estradiol versus EGF alone

Compound	increase in the number of embryonic neural stem cells in response to estradiol [1, 4] [%]	# secondary spheres from one single sphere ([1]; Embryo pass 1 neurospheres, EGF+4 nM estradiol, seven days, single spheres re-plated in EGF only, counted after 7 days, 15-20 replicates)	# secondary spheres from one single sphere ([2]; Adult pass 1 neurospheres, EGF+4 nM estradiol, seven days, single spheres re-plated in EGF only, counted after 7 days, 15-20 replicates)	increase in the number of adult neural stem cells in response to estradiol [2, 4] [%]	cell proliferation in the dentate gyrus [3]	cell proliferation / mitotic activity in the SVZ (SVZ proliferating cells)
C[C@]12CC[C@@H]3c4ccc(O)cc4CC[C@H]3[C@@H]1CC[C@@H]2O [estradiol]	150	104±15	78±11	35		
Estrogen					stimulate proliferation	no mitotic activity
C[C@]12C[C@H](O)[C@H]3[C@@H](CCC4=CC(=O)CC[C@@]43C)[C@@H]1CC[C@@H]2C(=O)CO [corticosterone]					dramatically decreases cell proliferation	no effect
